Where “and” joins values, the source holds several entries; their conditions need not be identical. Identical values can stand only once. Inconclusive results and toxic doses are left out. No stated cut-off is given here; in the data, active means T/C of 150% or more; inactive means T/C below 125%.
Tested on: L1210 leukemia ip in BDF1 mice, survival T/C
Assay: NCI In Vivo Anticancer Drug Screen. Data for tumor model L1210 Leukemia (intraperitoneal) in B6D2F1 (BDF1) mice
Conditions: endpoint: mean survival time, higher = longer survival
In short: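 Tumor cells were implanted, animals were treated, and survival was followed. The result divides the treated measurement by the vehicle-control measurement.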

[1] = dose: 50.0 mg/kg/injection, schedule: Q01DX009 (ip), vehicle: saline
[2] = dose: 100.0 mg/kg/injection, schedule: Q01DX009 (ip), vehicle: saline
[3] = dose: 100.0 mg/kg/injection, schedule: Q04DX003 (ip), vehicle: saline
[4] = dose: 200.0 mg/kg/injection, schedule: Q01DX009 (ip), vehicle: saline
[5] = dose: 200.0 mg/kg/injection, schedule: Q04DX003 (ip), vehicle: saline
[6] = dose: 400.0 mg/kg/injection, schedule: Q04DX003 (ip), vehicle: saline
[7] = dose: 100.0 mg/kg/injection, schedule: Q04DX003 (ip), vehicle: Klucel (hydroxypropylcellulose) (HPC)
[8] = dose: 200.0 mg/kg/injection, schedule: Q04DX003 (ip), vehicle: Klucel (hydroxypropylcellulose) (HPC)
[9] = dose: 400.0 mg/kg/injection, schedule: Q04DX003 (ip), vehicle: Klucel (hydroxypropylcellulose) (HPC)
[10] = dose: 100.0 mg/kg/injection, schedule: Q01DX009 (ip), vehicle: Klucel (hydroxypropylcellulose) (HPC)
[11] = dose: 200.0 mg/kg/injection, schedule: Q01DX009 (ip), vehicle: Klucel (hydroxypropylcellulose) (HPC)
[12] = dose: 400.0 mg/kg/injection, schedule: Q01DX009 (ip), vehicle: Klucel (hydroxypropylcellulose) (HPC)
[13] = dose: 100.0 mg/kg/injection, schedule: Q04DX003 (ip), vehicle: saline with Tween-80
[14] = dose: 200.0 mg/kg/injection, schedule: Q04DX003 (ip), vehicle: saline with Tween-80
[15] = dose: 400.0 mg/kg/injection, schedule: Q04DX003 (ip), vehicle: saline with Tween-80

Measured: T/C

CCCC(C(=O)O)C(CCC)C(=O)O (centres undefined)
inactive: dose: 100.0 mg/kg/injection, schedule: Q01DX009 (ip), vehicle: saline with Tween-80 92 % of control | dose: 200.0 mg/kg/injection, schedule: Q01DX009 (ip), vehicle: saline with Tween-80 96 % of control

Cc1cc(C)c(C(Br)C(Br)c2c(C)cc(C)cc2C)c(C)c1 (centres undefined)
inactive: dose: 12.5 mg/kg/injection, schedule: Q01DX009 (ip), vehicle: saline with Tween-80 88 % of control | dose: 12.5 mg/kg/injection, schedule: Q04DX003 (ip), vehicle: saline with Tween-80 98 % of control | dose: 25.0 mg/kg/injection, schedule: Q01DX009 (ip), vehicle: saline with Tween-80 87 % of control | dose: 25.0 mg/kg/injection, schedule: Q04DX003 (ip), vehicle: saline with Tween-80 93 % of control | dose: 50.0 mg/kg/injection, schedule: Q04DX003 (ip), vehicle: saline with Tween-80 91 % of control

CC1CCCC(C)N1 (centres undefined)
inactive: [1] 94 % of control | [2] 96 % of control and 100 % of control | [3] 110 % of control and 102 % of control | [4] 94 % of control and 106 % of control | [5] 102 % of control and 94 % of control | dose: 400.0 mg/kg/injection, schedule: Q01DX009 (ip), vehicle: saline 95 % of control | [6] 87 % of control

NC(=O)N1CCN(c2ccccc2)CC1
inactive: [7] 95 % of control | [8] 97 % of control | [9] 101 % of control

COc1ccc(S(=O)(=O)Nc2cc([N+](=O)[O-])ccc2OC)cc1
inactive: [10] 103 % of control | [11] 97 % of control | [12] 95 % of control

O=C(n1ccnc1)C(F)(F)C(F)(F)C(F)(F)F
inactive: dose: 100.0 mg/kg/injection, schedule: Q01DX001 (ip), vehicle: saline sonified 101 % of control | [3] 96 % of control | dose: 200.0 mg/kg/injection, schedule: Q01DX001 (ip), vehicle: saline sonified 110 % of control | [5] 96 % of control | dose: 400.0 mg/kg/injection, schedule: Q01DX001 (ip), vehicle: saline sonified 106 % of control | [6] 89 % of control

CC1(C)N=C(N)N=C(N)N1c1cccc(CNc2ccccc2)c1
inactive: dose: 3.12 mg/kg/injection, schedule: Q01DX001 (ip), vehicle: saline 95 % of control | dose: 6.25 mg/kg/injection, schedule: Q01DX001 (ip), vehicle: saline 103 % of control | dose: 12.5 mg/kg/injection, schedule: Q01DX001 (ip), vehicle: saline 98 % of control | dose: 25.0 mg/kg/injection, schedule: Q01DX001 (ip), vehicle: saline 93 % of control

CCS(=O)(=O)/C=C/c1ccc(Cl)c(Cl)c1
inactive: [7] 110 % of control | [8] 97 % of control | [9] 107 % of control

O=C(c1ccccc1)c1cccc(C(Br)Br)c1
inactive: [13] 96 % of control | [14] 95 % of control | [15] 95 % of control

O=C(NCCCl)NC1CCCC(O)C1 (centres undefined)
inactive: dose: 100.0 mg/kg/injection, schedule: Q01DX001 (ip), vehicle: saline 101 % of control | dose: 200.0 mg/kg/injection, schedule: Q01DX001 (ip), vehicle: saline 101 % of control | dose: 400.0 mg/kg/injection, schedule: Q01DX001 (ip), vehicle: saline 93 % of control

CCN1C(=O)/C(=C/c2ccncc2)SC1=S
inactive: dose: 50.0 mg/kg/injection, schedule: Q01DX Z (ip), vehicle: carboxymethylcellulose (CMC) 96 % of control | dose: 100.0 mg/kg/injection, schedule: Q01DX Z (ip), vehicle: carboxymethylcellulose (CMC) 92 % of control | dose: 200.0 mg/kg/injection, schedule: Q01DX Z (ip), vehicle: carboxymethylcellulose (CMC) 94 % of control | dose: 400.0 mg/kg/injection, schedule: Q01DX Z (ip), vehicle: carboxymethylcellulose (CMC) 91 % of control

CCOC(=O)/C(C#N)=C\c1ccc(N(C)CCC#N)cc1
inactive: [10] 100 % of control | [11] 96 % of control | [12] 94 % of control

CSCOC1C(COC(c2ccccc2)(c2ccccc2)c2ccccc2)OC(OCc2ccccc2)C(NC(C)=O)C1OCc1ccccc1 (centres undefined)
inactive: dose: 25.0 mg/kg/injection, schedule: Q01DX001 (ip), vehicle: saline with Tween-80 95 % of control | dose: 50.0 mg/kg/injection, schedule: Q01DX001 (ip), vehicle: saline with Tween-80 91 % of control | dose: 100.0 mg/kg/injection, schedule: Q01DX001 (ip), vehicle: saline with Tween-80 101 % of control and 91 % of control | dose: 400.0 mg/kg/injection, schedule: Q01DX001 (ip), vehicle: saline with Tween-80 94 % of control

COc1ccc([N+](=O)[O-])cc1NC(=O)N/N=C(\C)C(C)(C)C
inactive: [10] 94 % of control | [11] 102 % of control | [12] 86 % of control

O=[N+]([O-])c1cccc(S(=O)(=O)Oc2ccc(-c3ccccc3)cc2)c1
inactive: [13] 96 % of control | [14] 91 % of control | [15] 90 % of control

CCOC(=O)C1(c2ccccc2)CCN(CCC(=O)c2ccc(F)cc2)CC1
inactive: dose: 100.0 mg/kg/injection, schedule: Q01DX001 (ip), vehicle: Klucel (hydroxypropylcellulose) (HPC) 98 % of control | dose: 200.0 mg/kg/injection, schedule: Q01DX001 (ip), vehicle: Klucel (hydroxypropylcellulose) (HPC) 95 % of control

CCCC1(CCC)CN(CO)C1=O
inactive: dose: 25.0 mg/kg/injection, schedule: Q01DX009 (ip), vehicle: saline 102 % of control | dose: 25.0 mg/kg/injection, schedule: Q04DX003 (ip), vehicle: saline 93 % of control | [1] 102 % of control | dose: 50.0 mg/kg/injection, schedule: Q04DX003 (ip), vehicle: saline 98 % of control | [2] 100 % of control | [3] 104 % of control | [4] 97 % of control | [5] 104 % of control | [6] 88 % of control

CC1(C)C2CCC(=O)OC1CC2 (centres undefined)
inactive: dose: 5.0 mg/kg/injection, schedule: Q01DX001 (ip), vehicle: saline 116 % of control | dose: 10.0 mg/kg/injection, schedule: Q01DX001 (ip), vehicle: saline 100 % of control | dose: 20.0 mg/kg/injection, schedule: Q01DX001 (ip), vehicle: saline 86 % of control | dose: 40.0 mg/kg/injection, schedule: Q01DX001 (ip), vehicle: saline 108 % of control

CCOC(=O)C(=[N+]=[N-])S(=O)(=O)c1ccccc1
inactive: [13] 97 % of control | [14] 101 % of control | [15] 114 % of control

Source: PubChem BioAssay AID248 (DTP/NCI, 2004)
